Test [1] deals with T1, hKir2.1 (Homo sapiens, UniProt P63252).
T1 construct: expressed in transfected cells
T1 sequence (P63252 1-427): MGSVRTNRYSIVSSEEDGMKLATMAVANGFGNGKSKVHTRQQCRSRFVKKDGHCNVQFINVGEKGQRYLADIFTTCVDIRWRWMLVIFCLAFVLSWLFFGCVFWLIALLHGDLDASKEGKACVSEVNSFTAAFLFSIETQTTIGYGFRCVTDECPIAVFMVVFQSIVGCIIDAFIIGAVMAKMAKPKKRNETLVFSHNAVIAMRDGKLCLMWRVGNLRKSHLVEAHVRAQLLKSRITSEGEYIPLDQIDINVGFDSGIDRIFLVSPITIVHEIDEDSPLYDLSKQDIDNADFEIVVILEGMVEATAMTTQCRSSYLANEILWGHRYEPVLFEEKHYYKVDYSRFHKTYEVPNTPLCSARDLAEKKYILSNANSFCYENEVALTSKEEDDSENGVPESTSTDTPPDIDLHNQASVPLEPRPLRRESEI
Kind of test: Tl+ flux assay, mammalian Kir2.1. The format is cell-based. The procedure:
The open-reading frame of a full-length cDNA encoding AnKir1 cloned from An. gambiae Malpighian tubules (Genbank Accession # KJ596497)[17] was sub-cloned into the pcDNA5/TO expression vector (Life Technologies) and used for stable cell line generation, as described previously. Expression constructs for mammalian Kir channels were developed and validated in previous studies by our group.
Tl+ flux assay development
Tl+ flux assays were performed essentiall y as described previousl y (1). Briefl y, stabl y transfect ed T-Rex -HEK- 293- AnKir1 cells were cultured overnight in 384-well plates in media containing DMEM, 10% dial yz ed FBS and 1μg/ m L tetrac ycline to induce channel expression
(Fig. S1A). The next day, the cell culture medium was replaced with a dye-loading solution containing assay buffer (Hanks Balanced Salt Solution with 20 mM HEPES, pH 7.3), 0.01% (w/v) Pluronic F-127 (Li fe Technologies, Carlsbad, CA), and 1.2 μM of the thallium-sensitive dye Thallos-AM (TEFl abs, Austin, TX). Following 1 hr incubation at room temperature, the d ye-loading solution was washed from the plates and replaced with 20 μ L/well of assa y buffer. The plates were transferred t o a Ham amatsu Functional Drug Screening System 6000 (FDSS6000; Hamamatsu, Tokyo, J apan) where 20 μ L/well of test compounds in assay buffer (as prepared below) were added and allowed to incubate with the cells for 20 min. After the incubation period, a baseline recordi ng was collected at 1 Hz for 10 s (excitation 470 ± 20 nm, emission 540 ± 30 nm) followed by a t hallium stimulus buffer addition (10 μL/well) and data collection for an additional 4 min. The Tl + stimulus buffer contains in (mM) 125 NaHCO3, 1.8 CaSO4, 1 MgSO4, 5 glucose, 12 Tl2SO4, 10 HEPES, pH 7.4. For Tl + flux assays on Kir2.x, Kir4.1 and Kir6.2/SUR1 ex pressing cells, the Tl+ stimulus buffer contained 1.8 mM Tl 2SO4. […]
Prism software (GraphPad Software) was used to generate CRC from Tl+ fl ux ..Half-inhibition concentration (IC50) values were calculated from fits using a four parameter logistic equation.
High-throughput screeni ng
The test compounds were transferred to daughter pol yprop ylene 384-well plates (G reiner Bio-One, Monroe, NC) using an Echo555 liquid handler (Labcyte, Sunnyvale, CA), and then diluted into assay buffer to generat e a 2X stock in 0.6% DMSO (0.3% final). […]
Concentration- response curves (CRCs) were gener ated b y screening compounds at 3-fold dilution series (1 nM - 30 μM).
Tl+ flux data were anal yzed as previousl y d escri bed (2, 3) using a combination of Excel (Microsoft Corp, Redmond, WA) with XLfit add-in (IDBS, Guildford, Surre y, UK), Ori ginPro (Ori gin Lab, Northampton, MA), and GraphPad Prism (GraphPad Software, San Diego, CA, USA) software. R aw data were opened in Excel and each data point in a gi ven trace was divided by the first data point from that trace (static ratio) followed by subtraction of data points from control traces gen erated in presence of vehicl e co ntrols. The slope of the fluorescen ce increas e beginning 5 s after Tl+ addition and ending 15 s after Tl + addition was calcu lated.

The subject of test [2] is An. gambiae G3 strain. The experiment in a line: Topical toxicity bioassay, An. gambiae G3 strain adult females. The format is in vivo, Anopheles gambiae. To be noted: adult female An. gambiae; for ED50, G3 Strain: 24 h, (95% confidence limits), synergists PBO/DEF applied 4 h prior where labelled. The procedure: Topical toxicity bioassays were performed based on the method of Pridgeon et al.[50]. Briefly, non-blood fed adult female mosquitoes were chilled on ice for 1–3 minutes, during which 200 nL of chemical (dissolved in 95% ethanol) was applied onto the abdomen of the insect using a handheld Hamilton® micro-applicator. For synergism studies, 500 ng of the synergist (i.e., piperonyl butoxide [PBO] or S,S,S-tributyl phosphorotrithioate [DEF]) per milligram of mosquito (ng/mg) was applied to the abdomen 4 h prior to application of the insecticide. […] The three ED50 values obtained were then averaged and presented as a mean. An ethanol-only treatment was included in each experiment as a negative control. Treated mosquitoes were transferred to small cages with access to 10% sucrose and held under rearing conditions for 24 h. Mortality was recorded at 24 h.

The mark [3] stands for this setting: Tl+ flux, Tables S2/S3 and supplemental text, read-out: hKir2.1 IC50.
The mark [4] stands for this setting: Tl+ flux assay, read-out: Kir2.1 IC50 (Tl+ flux).

SMILES strings stand for the structures. Read-outs that look alike come from different tables or passages of the source.

For `O=C1CCCc2c1ccn2CC(=O)N1CCCc2ccccc21` [Compound 4], in test [1] (setting [3]), the IC50 – broadly, the point on the concentration scale where inhibition reaches its midpoint – is more than 30 µM.

With `O=C(Cn1nc(C(F)(F)F)c2c1CCCC2)N1CCCC(c2ccccc2)C1` (centres unmarked) [Compound 12], the 50% inhibitory concentration (IC50) in test [1] (setting [3]) was more than 30 µM.

With `O=C(Cn1nc(C(F)(F)F)c2c1CCCC2)N1CCCC2CCCCC21` (centres unmarked) [Compound 9], the IC50 in test [1] (setting [3]) is more than 30 µM.

With `O=C(Cn1nc(C(F)(F)F)c2c1CCCC2)NC1CCC1` [VU937], in test [2], the “ED50, G3 Strain” value is more than 10 µg/mg.

As to `O=C(Cn1nc(C(F)(F)F)c2c1CCCC2)N1CCCc2ccccc21` [VU041, 1-(3,4-dihydroquinolin-1(2H)-yl)-2-(3-(trifluoromethyl)-4,5,6,7-tetrahydro-1H-indazol-1-yl)ethan-1-one], in test [2], the “ED50, G3 Strain” value was 1.8 (0.9–3.1) A μg/mg and the ED30 is recorded as 1 μg/mg of mosquito. Also, the IC50 in test [1] (setting [4]) worked out at 12.7 µM. Further, the IC50 in test [1] (setting [3]) is 11.3 µM.

Consider `O=C(Cn1ncc2c1CCOC2)N1CCCc2ccccc21` [VU730], for which the “ED50, G3 Strain” value in test [2] is given as 2.4 (2.1–2.9) A μg/mg. In test [1] (setting [4]), the concentration for half-maximal inhibition (IC50) is more than 30 µM.

On to `CC1CC(C)CN(C(=O)Cn2nc(C(F)(F)F)c3c2CCCC3)C1` (centres unmarked) [Compound 13], for which, in test [1] (setting [3]), the half-maximal inhibitory concentration (IC50) is more than 30 µM.

These data come from paper PMC5111108, “An insecticide resistance-breaking mosquitocide targeting inward rectifier potassium channels in vectors of Zika virus and malaria” (Scientific Reports, 2016).
